The numbers were not newly measured in US11192861B2, “Human plasma kallikrein inhibitors” (BioCryst Pharmaceuticals, Inc., priority 2014, dated 2021), which cites them from elsewhere.

The series concerns hereditary angioedema (HAE).

Take ecallantide [DX-88]: the “edema in patients with hereditary angioedema” value (patients with HAE) is on record as “alleviates edema”.

Turning to `NC(N)=NCCC[C@@H](N)C(=O)N[C@@H](CCCN=C(N)N)C(=O)N1CCC[C@H]1C(=O)N1C[C@H](O)C[C@H]1C(=O)NCC(=O)N[C@@H](Cc1cccs1)C(=O)N[C@@H](CO)C(=O)N1Cc2ccccc2C[C@@H]1C(=O)N1[C@H](C(=O)N[C@@H](CCCN=C(N)N)C(=O)O)C[C@@H]2CCCC[C@@H]21` [Icatibant], the “effectiveness in treating HAE” value (in vivo) was “effective in treating HAE”.
